Assays:
[1] = target: T1, KPC-2 (Klebsiella pneumoniae, UniProt Q9F663); test: β-lactamase inhibitory activity, determination of IC50 (nitrocefin hydrolysis); assay type: biochemical
T1 construct: made in house; host or cells: E. coli

[2] = system: E. cloacae UFR85 (TEM-1, CTX-M-15, derepressed ampC); test: microbe, parasite or virus in culture; assay type: cell-based; conditions: for MIC: Enterobacter cloacae, 18 h, read-out: MIC compounds of the invention alone
Description: […] […] Microplates were incubated for 16-20 h at 35° C. in ambient air. The MIC of the compounds was defined as the lowest concentration of said compounds that prevented bacterial growth as read by visual inspection.

[3] = target: T2, CTX-M-15 (Escherichia coli, UniProt Q9EXV5); test: β-lactamase inhibitory activity, determination of IC50 (nitrocefin hydrolysis); assay type: biochemical
T2 construct: made in house; host or cells: E. coli
T2 sequence (Q9EXV5 entry or part of it): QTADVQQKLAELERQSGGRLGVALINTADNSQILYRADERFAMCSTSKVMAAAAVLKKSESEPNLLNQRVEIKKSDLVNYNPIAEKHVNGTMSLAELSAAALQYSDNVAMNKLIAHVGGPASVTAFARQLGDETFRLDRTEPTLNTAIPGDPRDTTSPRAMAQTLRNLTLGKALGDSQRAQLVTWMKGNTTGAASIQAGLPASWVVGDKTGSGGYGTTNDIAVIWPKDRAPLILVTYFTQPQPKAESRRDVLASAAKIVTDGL

[4] = target: AmpC (PAE) (Pseudomonas aeruginosa, UniProt P24735); test: biochemical
Sequence of AmpC (PAE) (P24735 27-397): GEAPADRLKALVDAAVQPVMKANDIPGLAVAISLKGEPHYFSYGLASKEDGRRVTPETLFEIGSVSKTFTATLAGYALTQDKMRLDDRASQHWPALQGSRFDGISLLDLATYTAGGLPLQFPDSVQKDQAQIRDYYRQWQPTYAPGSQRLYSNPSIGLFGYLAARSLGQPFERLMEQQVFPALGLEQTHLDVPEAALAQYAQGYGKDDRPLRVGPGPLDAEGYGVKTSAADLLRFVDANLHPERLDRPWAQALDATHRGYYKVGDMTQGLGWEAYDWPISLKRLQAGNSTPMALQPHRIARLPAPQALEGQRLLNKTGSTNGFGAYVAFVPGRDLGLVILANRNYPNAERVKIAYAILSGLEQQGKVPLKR

[5] = target: T3, SHV-1 (Klebsiella pneumoniae, UniProt P0AD64); test: β-lactamase inhibitory activity, determination of IC50 (nitrocefin hydrolysis); assay type: biochemical
T3 construct: made in house; host or cells: E. coli
T3 sequence (P0AD64 22-286): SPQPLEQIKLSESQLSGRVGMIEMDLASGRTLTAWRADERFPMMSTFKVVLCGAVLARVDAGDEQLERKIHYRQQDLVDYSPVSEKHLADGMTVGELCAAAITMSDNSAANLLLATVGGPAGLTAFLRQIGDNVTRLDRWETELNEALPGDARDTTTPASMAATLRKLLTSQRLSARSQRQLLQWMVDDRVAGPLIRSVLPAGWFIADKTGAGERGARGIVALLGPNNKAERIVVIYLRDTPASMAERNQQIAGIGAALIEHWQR

[6] = system: P. aeruginosa UFR93 (Derepressed ampC, OprD-, MexAB+, MexXY+); test: MIC of compounds and synergy with ceftazidime (broth microdilution); assay type: cell-based; conditions: for MIC: Pseudomonas aeruginosa, 18 h, read-out: MIC compounds of the invention alone
In short: (§1)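 First, test compounds prepared in DMSO are spotted on sterile plates. Next, plates incubate at 35° C under ambient air for 16-20 h. Finally, wells are inspected by eye, and the lowest concentration without growth gives the MIC.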

[7] = system: P. aeruginosa UFR92 (Derepressed ampC, OprD-); test: as above; assay type: cell-based; conditions: MIC of ceftazidime with compound fixed at 4 μg/mL; strain UFR92 (P. aeruginosa)
In short: (§2)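 MICs were scored by eye after 16-20 h at 35° C (ambient air), using compounds spotted from DMSO.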

[8] = system: E. coli UFR61O (TEM-1, KPC-2); test: as above; assay type: cell-based; conditions: for MIC: Escherichia coli, strain UFR61O (E. coli), read-out: MIC compounds of the invention alone; for MIC, combination of CAZ and compounds of the invention: MIC of ceftazidime with compound fixed at 4 μg/mL, strain UFR610 (E. coli)
In short: as §2

[9] = system: E. coli UFR74 (SHV-1, DHA-1); test: as above; assay type: cell-based; conditions: strain UFR74 (E. coli); for MIC: Escherichia coli, 18 h, read-out: MIC compounds of the invention alone; for MIC, combination of CAZ and compounds of the invention: MIC of ceftazidime with compound fixed at 4 μg/mL
In short: as §1

[10] = system: P. aeruginosa UFR90 (Derepressed ampC, OprD-); test: as above; assay type: cell-based
In short: as §1

[11] = system: P. aeruginosa UFR48 (VIM-2); test: as above; assay type: cell-based; conditions: strain UFR48 (P. aeruginosa); for MIC: Pseudomonas aeruginosa, 18 h, read-out: MIC compounds of the invention alone
In short: as §1

[12] = system: E. cloacae 260508 (TEM-1, CTX-M-15); test: microbe, parasite or virus in culture; assay type: cell-based; conditions: for MIC: Enterobacter cloacae, read-out: MIC compounds of the invention alone; for MIC, combination of CAZ and compounds of the invention: MIC of ceftazidime with compound fixed at 4 μg/mL, strain 260508 (E. cloacae)
Description: (§3) Briefly, compounds alone according to the invention were prepared in DMSO and spotted (2 μL each) on sterile polystyrene plates (Corning, 3788). […] Microplates were incubated for 16-20 h at 35° C. in ambient air. The MIC of the compounds was defined as the lowest concentration of said compounds that prevented bacterial growth as read by visual inspection.

[13] = system: K. pneumoniae 160143 (TEM-1, SHV-1, CTX-M-15, KPC-2, OXA-1); test: microbe, parasite or virus in culture; assay type: cell-based; conditions: for MIC: Klebsiella pneumoniae, 18 h, read-out: MIC compounds of the invention alone
Description: as §3

[14] = system: E. coli 190317 (TEM-1, SHV-12, CTX-M-15, OXA-1); test: microbe, parasite or virus in culture; assay type: cell-based; conditions: for MIC: Escherichia coli, 18 h, read-out: MIC compounds of the invention alone; for MIC, combination of CAZ and compounds of the invention: MIC of ceftazidime with compound fixed at 4 μg/mL, strain 190317 (E. coli)
Description: as §3

[15] = target: AmpC (P99) (Enterobacter cloacae, UniProt P05364); test: biochemical
Sequence of AmpC (P99) (P05364 21-381): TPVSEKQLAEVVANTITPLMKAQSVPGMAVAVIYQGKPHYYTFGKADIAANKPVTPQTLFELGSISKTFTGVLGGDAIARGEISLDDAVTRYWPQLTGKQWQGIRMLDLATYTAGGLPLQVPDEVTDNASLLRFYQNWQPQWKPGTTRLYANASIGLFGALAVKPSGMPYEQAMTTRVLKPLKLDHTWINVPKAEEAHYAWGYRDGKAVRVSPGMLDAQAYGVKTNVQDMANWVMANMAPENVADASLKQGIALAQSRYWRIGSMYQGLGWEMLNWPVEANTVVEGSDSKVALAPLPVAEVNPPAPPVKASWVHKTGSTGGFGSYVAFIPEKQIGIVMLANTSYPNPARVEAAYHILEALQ

[16] = target: T4, OXA-15 (Pseudomonas aeruginosa, UniProt Q51574); test: β-lactamase inhibitory activity, determination of IC50 (nitrocefin hydrolysis); assay type: biochemical
T4 construct: made in house; host or cells: E. coli
T4 sequence (Q51574 22-275): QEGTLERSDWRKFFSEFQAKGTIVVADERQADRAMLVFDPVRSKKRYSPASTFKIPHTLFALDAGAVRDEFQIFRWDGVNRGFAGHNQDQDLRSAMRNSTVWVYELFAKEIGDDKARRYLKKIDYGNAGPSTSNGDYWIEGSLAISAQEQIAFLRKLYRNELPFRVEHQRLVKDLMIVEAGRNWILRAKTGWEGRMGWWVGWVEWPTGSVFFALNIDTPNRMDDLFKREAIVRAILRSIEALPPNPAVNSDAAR

[17] = target: T5, TEM-1 (Escherichia coli, UniProt P62593); test: as above; assay type: biochemical; conditions: class (A), 30 min pre-incubation
T5 construct: made in house; host or cells: E. coli
T5 sequence (P62593 24-286 limits assumed): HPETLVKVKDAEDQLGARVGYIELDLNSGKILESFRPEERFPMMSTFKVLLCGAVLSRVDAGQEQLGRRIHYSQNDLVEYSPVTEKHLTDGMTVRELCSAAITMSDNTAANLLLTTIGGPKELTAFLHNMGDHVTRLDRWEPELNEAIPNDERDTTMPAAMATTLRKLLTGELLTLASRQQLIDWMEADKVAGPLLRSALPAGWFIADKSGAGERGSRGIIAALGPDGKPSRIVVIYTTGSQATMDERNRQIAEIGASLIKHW

T1 sequence (Q9F663 25-293 limits assumed): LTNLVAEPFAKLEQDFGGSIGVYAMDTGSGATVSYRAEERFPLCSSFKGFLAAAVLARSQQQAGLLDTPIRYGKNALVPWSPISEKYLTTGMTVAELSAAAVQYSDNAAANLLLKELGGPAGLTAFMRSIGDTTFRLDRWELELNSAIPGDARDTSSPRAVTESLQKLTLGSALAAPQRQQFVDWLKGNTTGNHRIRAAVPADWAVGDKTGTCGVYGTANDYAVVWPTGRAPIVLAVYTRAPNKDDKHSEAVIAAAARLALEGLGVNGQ

Row | SMILES | IC50 [1] [µM] | MIC [2] [µg/mL] | IC50 [3] [µM] | IC50 [4] [µM] | IC50 [5] [µM] | MIC [6] [µg/mL] | MIC [8] [µg/mL] | MIC, combination of CAZ and compounds of the invention [8] [µg/mL] | MIC [9] [µg/mL] | MIC, combination of CAZ and compounds of the invention [9] [µg/mL] | MIC [11] [µg/mL] | MIC [12] [µg/mL] | MIC, combination of CAZ and compounds of the invention [12] [µg/mL] | MIC [13] [µg/mL] | MIC [14] [µg/mL] | MIC, combination of CAZ and compounds of the invention [14] [µg/mL] | IC50 [15] [µM] | IC50 [16] [µM] | IC50 [17] [µM] | other results
1 | NC[C@@H]1C(c2nccs2)=C[C@@H]2CN1C(=O)N2OS(=O)(=O)[O-].O=C(O)C(F)(F)F.[Na+] [Example 2, Sodium and 2,2,2-trifluoroacetate [(2S,5R)-2-(azaniumylmethyl)-7-oxo-3-thiazol-2-yl-1,6-diazabicyclo[3.2.1]oct-3-en-6-yl] sulfate] | 0.0039 | 16 | 0.00076 | 0.11 | 0.00074 | 4 | 0.031 | <0.25 | 16 | ≤0.125 | 2 | ≤ 0.016 | <0.25 | 8 | ≤ 0.016 | <0.25 | 0.0032 | 0.00084 | 0.0017 | MIC, combination of CAZ and compounds of the invention ([6]; MIC of ceftazidime with compound fixed at 4 μg/mL, strain UFR93 (P. aeruginosa)): <0.25 µg/mL; MIC, combination of CAZ and compounds of the invention [7]: <0.25 µg/mL; MIC, combination of CAZ and compounds of the invention ([10]; MIC of ceftazidime with compound fixed at 4 μg/mL, strain UFR90 (P. aeruginosa)): <0.25 µg/mL; MIC ([10]; Pseudomonas aeruginosa, 18 h, read-out: MIC compounds of the invention alone): 1 µg/mL; MIC, combination of CAZ and compounds of the invention ([11]; MIC of ceftazidime with compound fixed at 4 μg/mL): <0.25 µg/mL
2 | NC[C@@H]1C(c2ncco2)=C[C@@H]2CN1C(=O)N2OS(=O)(=O)[O-].O=C(O)C(F)(F)F.[Na+] [Example 5, Sodium and 2,2,2-trifluoroacetate [(2S,5R)-2-(azaniumylmethyl)-7-oxo-3-oxazol-2-yl-1,6-diazabicyclo[3.2.1]oct-3-en-6-yl] sulfate] | 1.8 | 8 | 0.13 | 12 | 0.064 | 4 | 0.5 | <0.25 | 16 | <0.25 | 2 | 8 | <0.25 | 32 | ≤ 0.016 | <0.25 | 11 | 0.008 | 0.11 | MIC, combination of CAZ and compounds of the invention ([2]; MIC of ceftazidime with compound fixed at 4 μg/mL, strain UFR85 (E. cloacae)): <0.25 µg/mL; MIC, combination of CAZ and compounds of the invention ([13]; MIC of ceftazidime with compound fixed at 4 μg/mL, strain 160143 (K. pneumoniae)): <0.25 µg/mL

From patent US10072006B2 (MUTABILIS, priority 2015, dated 2018)
